The supplement of paper PMC12592484

Assays:
Test in all cases: drug sensitivity score (DSS2, normalised partial AUC of dose-response, 72 h CellTiter-Glo viability) (DSS (dimensionless)); higher = more sensitive (stronger growth inhibition / cytotoxicity); extreme values may be limits of the assay
CAF#6 = system: CAF#6 (primary prostate cancer-associated fibroblasts of iCAF-like type)
Method in brief: (§1)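 Viability of low-passage primary prostate cancer-associated fibroblasts, PF179T, WPMY-1, LNCaP and 22Rv1 cells was read by CellTiter-Glo 2.0 luminescence 72 h after seeding onto compounds pre-dispensed in 384-well plates at five doses over a 10,000-fold range. Readings were scaled between vehicle and positive-control wells. Sensitivity is reported as a drug sensitivity score from BREEZE, namely a partial area under the fitted logistic curve divided by the log of its upper asymptote, where higher means more sensitive.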

PF179T = system: PF179T
Method in brief: as §1

CAF#5 = system: CAF#5 (primary prostate cancer-associated fibroblasts of myCAF-like type)
Method in brief: as §1

LNCAP = system: LNCAP
Method in brief: as §1

CAF#7 = system: CAF#7 (primary prostate cancer-associated fibroblasts of myCAF-like type)
Method in brief: as §1

CAF#3 = system: CAF#3 (primary prostate cancer-associated fibroblasts of myCAF-like type)
Method in brief: as §1

CAF#2 = system: CAF#2 (primary prostate cancer-associated fibroblasts of iCAF-like type)
Method in brief: as §1

CAF#1 = system: CAF#1 (primary prostate cancer-associated fibroblasts of myCAF-like type)
Method in brief: as §1

CAF#4 = system: CAF#4 (primary prostate cancer-associated fibroblasts of iCAF-like type)
Method in brief: as §1

22Rv1 = system: 22Rv1
Method in brief: as §1

WPMY-1 = system: WPMY-1
Method in brief: as §1

Row | SMILES | drug sensitivity score (CAF#6) | drug sensitivity score (PF179T) | drug sensitivity score (CAF#5) | drug sensitivity score (LNCAP) | drug sensitivity score (CAF#7) | drug sensitivity score (CAF#3) | drug sensitivity score (CAF#2) | drug sensitivity score (CAF#1) | drug sensitivity score (CAF#4) | drug sensitivity score (22Rv1) | drug sensitivity score (WPMY-1)
1 | CC1=C(/C=C/C(C)=C/C=C/C(C)=C/C(=O)O)C(C)(C)CCC1 [Tretinoin] (tested concentration range 1-10000 nM) | 2.7 | 8.2 | 1.7 | 0 | 5 | 0.2 | 5 | 1.4 | 0 | 0 | 0
2 | NC(=S)N/N=C/c1ncccc1N [Triapine] (tested concentration range 1-10000 nM) | 1 | 2.2 | 1.3 | 3.2 | 0.8 | 0.6 | 3.3 | 0 | 0 | 4 | 4.9
3 | O=c1[nH]c(=O)n([C@H]2C[C@H](O)[C@@H](CO)O2)cc1C(F)(F)F [Trifluridine] (tested concentration range 1-10000 nM) | 0 | 0.1 | 0 | 4 | 0 | 0 | 1 | 0 | 0 | 5 | 4.7
4 | O=C(CCCCCCC(=O)Nc1ccc([C@H]2O[C@@H](CSc3nc(-c4ccccc4)c(-c4ccccc4)o3)C[C@@H](c3ccc(CO)cc3)O2)cc1)NO [Tubacin] (tested concentration range 1-10000 nM) | 1.1 | 3.4 | 2.3 | 7 | 3.3 | 0 | 2.4 | 2 | 1.4 | 5.6 | 5.3
5 | CN1CCc2c(c3ccccc3n2Cc2ccc(C(=O)NO)cc2)C1 [Tubastatin A] (tested concentration range 1-10000 nM) | 0 | 0 | 0 | 1.4 | 0 | 0.6 | 0.2 | 0 | 2.8 | 2.3 | 5.9
6 | Cc1cc(Nc2ncnc3ccc(NC4=NC(C)(C)CO4)cc23)ccc1Oc1ccn2ncnc2c1 [Tucatinib] (tested concentration range 0.2-2500 nM) | 0.1 | 0.1 | 0 | 0.6 | 0 | 0 | 0 | 0.4 | 0 | 0 | 0
7 | Nc1cc(F)ccc1NC(=O)c1ccc(CNC(=O)/C=C/c2cccnc2)cc1 [Tucidinostat] (tested concentration range 1-10000 nM) | 3.2 | 8.9 | 10.1 | 10.6 | 3.9 | 2.9 | 6 | 2.4 | 5.7 | 9.6 | 7.6
8 | COC(=O)c1ccc2c(c1)[nH]c1ncnc(NCCCN3CCCCC3)c12 [UM729] (tested concentration range 1-10000 nM) | 0 | 0.1 | 1.6 | 3.3 | 0.2 | 0.3 | 0 | 0 | 0 | 3.6 | 3.9
9 | COc1cc2c(NC3CCN(C(C)C)CC3)nc(C3CCCCC3)nc2cc1OCCCN1CCCC1 [UNC0638] (tested concentration range 1-10000 nM) | 6.5 | 5.2 | 0 | 6 | 6.6 | 7.7 | 0 | 0 | 0 | 7.2 | 6.1
10 | COc1cc2c(NC3CCN(C(C)C)CC3)nc(N3CCC(F)(F)CC3)nc2cc1OCCCN1CCCC1 [UNC0642] (tested concentration range 1-10000 nM) | 0.7 | 0 | 0 | 4.5 | 1.9 | 0 | 0 | 0 | 0 | 5.8 | 4.8
11 | O=C(c1ccc(C(=O)N2CCC(N3CCCC3)CC2)c(Nc2ccccc2)c1)N1CCC(N2CCCC2)CC1 [UNC1215] (tested concentration range 1-10000 nM) | 0 | 0 | 0 | 0 | 0 | 0 | 0 | 0 | 0 | 0 | 0
12 | CCCCNc1ncc(C(=O)NCc2ccc(-n3ccnc3)cc2)c(NC2CCC(O)CC2)n1 (stereo not given) [UNC2881] (tested concentration range 0.2-2500 nM) | 2 | 0 | 0.1 | 1.5 | 4.8 | 2.6 | 0.1 | 0.7 | 0.7 | 0 | 0
13 | CC(C)Nc1cc(-c2c[nH]c(C(=O)N[C@H](CO)c3cccc(Cl)c3)c2)c(Cl)cn1 [Ulixertinib] (tested concentration range 1-10000 nM) | 2 | 1.9 | 0.3 | 6.1 | 4.3 | 0 | 2.2 | 0.2 | 1.2 | 9.6 | 5.7
14 | CC(C)Oc1ccc(-c2nn([C@@H](C)c3oc4ccc(F)cc4c(=O)c3-c3cccc(F)c3)c3ncnc(N)c23)cc1F [Umbralisib] (tested concentration range 0.2-2500 nM) | 0 | 0 | 0 | 3.4 | 0 | 2.4 | 0.9 | 1.1 | 0 | 0 | 0
15 | CC[C@@H]1CN(C(=O)NCC(F)(F)F)C[C@@H]1c1cnc2cnc3[nH]ccc3n12 [Upadacitinib] (tested concentration range 1-10000 nM) | 0 | 0 | 0.8 | 0 | 0 | 0 | 1.3 | 0 | 0.1 | 0 | 0.5
16 | C=CC(=O)N1CC/C(=C\c2ccc(F)c([N+](=O)[O-])c2)C(=O)/C(=C/c2ccc(F)c([N+](=O)[O-])c2)C1 [VLX1570] (tested concentration range 1-10000 nM) | 17.5 | 22.2 | 25.1 | 21.4 | 19.5 | 17.3 | 29.7 | 26.9 | 28 | 26.9 | 29.3
17 | CNC(=O)c1ccccc1Nc1cc(Nc2ccc(N3CCOCC3)cc2OC)ncc1C(F)(F)F [VS-4718] (tested concentration range 1-10000 nM) | 8.9 | 7.5 | 13.1 | 4.5 | 12.4 | 8.1 | 11.9 | 12.9 | 7.3 | 7.9 | 6.8
18 | CCCC(CCC)C(=O)O [Valproic acid] (tested concentration range 100-1000000 nM) | 0 | 0 | 0 | 0 | 0 | 1.2 | 0 | 0 | 0 | 0 | 0
19 | CCCCC(=O)OCC(=O)[C@]1(O)Cc2c(O)c3c(c(O)c2[C@@H](O[C@H]2C[C@H](NC(=O)C(F)(F)F)[C@H](O)[C@H](C)O2)C1)C(=O)c1c(OC)cccc1C3=O [Valrubicin] (tested concentration range 0.5-5000 nM) | 9.4 | 9.6 | 8.4 | 20.6 | 11.4 | 8.7 | 9.3 | 8.6 | 4.9 | 14.3 | 14.9
20 | COc1cc2/c(=N/c3ccc(Br)cc3F)nc[nH]c2cc1OCC1CCN(C)CC1 [Vandetanib] (tested concentration range 0.1-1000 nM) | 0.1 | 0 | 4.4 | 0 | 0.2 | 2.4 | 6.4 | 5.1 | 4.6 | 0 | 0.4
21 | CCc1c(C(=O)C(N)=O)c2c(OCC(=O)O)cccc2n1Cc1ccccc1 [Varespladib] (tested concentration range 1-10000 nM) | 0 | 0 | 1.3 | 0 | 0 | 0 | 0 | 0 | 0 | 0 | 0
22 | C[C@]1(c2nc3c(C(N)=O)cccc3[nH]2)CCCN1 [Veliparib] (tested concentration range 1-10000 nM) | 1.7 | 0.5 | 0 | 0.7 | 1.2 | 2.6 | 1.5 | 1.2 | 0 | 1.4 | 0.8
23 | CCCS(=O)(=O)Nc1ccc(F)c(C(=O)c2c[nH]c3ncc(-c4ccc(Cl)cc4)cc23)c1F [Vemurafenib] (tested concentration range 1-10000 nM) | 0.8 | 2.8 | 4.7 | 3 | 1.6 | 4.4 | 5.3 | 4.3 | 3 | 3.4 | 1.9
24 | CC1(C)CCC(CN2CCN(c3ccc(C(=O)NS(=O)(=O)c4ccc(NCC5CCOCC5)c([N+](=O)[O-])c4)c(Oc4cnc5[nH]ccc5c4)c3)CC2)=C(c2ccc(Cl)cc2)C1 [Venetoclax] (tested concentration range 0.1-1000 nM) | 0 | 0 | 0 | 0 | 0 | 0 | 0 | 0 | 0 | 0 | 0
25 | CCCCOc1nc(N)c2c(n1)N(Cc1cccc(CN3CCCC3)c1)CC(=O)N2 [Vesatolimod] (tested concentration range 1-10000 nM) | 0 | 0 | 0 | 0 | 0 | 0 | 0 | 0 | 0 | 0 | 0
